Structures can show the parent of a compound that is named as a salt.
Legend:
[1] = molecular target: T1, human JAK2 kinase domain (JH1) (Homo sapiens, UniProt O60674); experiment: JH1 biochemical assay for JAK2 (ADP-Glo kinase assay, recombinant JH1 catalytic domain, JAK3-974 peptide, 15 μM ATP)
T1 construct: recombinantly generated catalytic kinase (also known as JH1) domain of human JAK1, JAK2, JAK3 and TYK2
Summary of the method: (§1)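 Luminescent ADP read-out after residual ATP depletion, 100 min reaction. Kinase domain concentrations were 4 nM (JAK1), 0.2 nM (JAK2), 0.3 nM (JAK3) and 2 nM (TYK2), each with 50 μM peptide. IC50 values came from 4-parameter logistic fits over 11 points, 3-fold steps, top 10 μM or 1 μM.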

[2] = molecular target: T2, human TYK2 kinase domain (JH1) (Homo sapiens, UniProt P29597); experiment: JH1 biochemical assay for TYK2 (ADP-Glo kinase assay, recombinant JH1 catalytic domain, JAK3-974 peptide, 10 μM ATP)
T2 construct: recombinantly generated catalytic kinase (also known as JH1) domain of human JAK1, JAK2, JAK3 and TYK2
T2 sequence (P29597 897-1176 limits assumed): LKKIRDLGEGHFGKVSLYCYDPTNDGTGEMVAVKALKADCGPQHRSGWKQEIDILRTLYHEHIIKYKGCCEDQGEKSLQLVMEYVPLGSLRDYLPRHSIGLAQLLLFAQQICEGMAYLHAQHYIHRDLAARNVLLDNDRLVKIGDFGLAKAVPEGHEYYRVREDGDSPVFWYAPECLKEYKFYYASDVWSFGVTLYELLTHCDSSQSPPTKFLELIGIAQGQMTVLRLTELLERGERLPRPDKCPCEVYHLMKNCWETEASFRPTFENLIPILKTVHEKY
Summary of the method: as §1

[3] = molecular target: T3, human JAK3 kinase domain (JH1) (Homo sapiens, UniProt P52333); experiment: JH1 biochemical assay for JAK3 (ADP-Glo kinase assay, recombinant JH1 catalytic domain, JAK3-974 peptide, 4 μM ATP)
T3 construct: recombinantly generated catalytic kinase (also known as JH1) domain of human JAK1, JAK2, JAK3 and TYK2
T3 sequence (P52333 822-1111 limits assumed): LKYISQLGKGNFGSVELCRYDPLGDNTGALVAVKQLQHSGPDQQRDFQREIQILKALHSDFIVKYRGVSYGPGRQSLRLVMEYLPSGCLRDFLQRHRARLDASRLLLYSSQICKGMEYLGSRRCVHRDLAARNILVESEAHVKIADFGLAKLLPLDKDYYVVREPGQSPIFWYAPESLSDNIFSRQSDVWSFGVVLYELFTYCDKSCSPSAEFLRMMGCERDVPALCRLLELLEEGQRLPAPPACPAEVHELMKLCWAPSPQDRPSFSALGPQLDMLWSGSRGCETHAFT
Summary of the method: as §1

[4] = molecular target: JAK1 kinase activity on STAT3 in TF1 cells (Homo sapiens, UniProt P23458); experiment: pSTAT3 cell assay (MSD; TF1 cells, 30 ng/mL IL-6 stimulation); assay type: cell-based; settings: 30 ng/mL IL-6, 15 minutes
Chain of JAK1 kinase activity on STAT3 in TF1 cells (P23458 whole entry): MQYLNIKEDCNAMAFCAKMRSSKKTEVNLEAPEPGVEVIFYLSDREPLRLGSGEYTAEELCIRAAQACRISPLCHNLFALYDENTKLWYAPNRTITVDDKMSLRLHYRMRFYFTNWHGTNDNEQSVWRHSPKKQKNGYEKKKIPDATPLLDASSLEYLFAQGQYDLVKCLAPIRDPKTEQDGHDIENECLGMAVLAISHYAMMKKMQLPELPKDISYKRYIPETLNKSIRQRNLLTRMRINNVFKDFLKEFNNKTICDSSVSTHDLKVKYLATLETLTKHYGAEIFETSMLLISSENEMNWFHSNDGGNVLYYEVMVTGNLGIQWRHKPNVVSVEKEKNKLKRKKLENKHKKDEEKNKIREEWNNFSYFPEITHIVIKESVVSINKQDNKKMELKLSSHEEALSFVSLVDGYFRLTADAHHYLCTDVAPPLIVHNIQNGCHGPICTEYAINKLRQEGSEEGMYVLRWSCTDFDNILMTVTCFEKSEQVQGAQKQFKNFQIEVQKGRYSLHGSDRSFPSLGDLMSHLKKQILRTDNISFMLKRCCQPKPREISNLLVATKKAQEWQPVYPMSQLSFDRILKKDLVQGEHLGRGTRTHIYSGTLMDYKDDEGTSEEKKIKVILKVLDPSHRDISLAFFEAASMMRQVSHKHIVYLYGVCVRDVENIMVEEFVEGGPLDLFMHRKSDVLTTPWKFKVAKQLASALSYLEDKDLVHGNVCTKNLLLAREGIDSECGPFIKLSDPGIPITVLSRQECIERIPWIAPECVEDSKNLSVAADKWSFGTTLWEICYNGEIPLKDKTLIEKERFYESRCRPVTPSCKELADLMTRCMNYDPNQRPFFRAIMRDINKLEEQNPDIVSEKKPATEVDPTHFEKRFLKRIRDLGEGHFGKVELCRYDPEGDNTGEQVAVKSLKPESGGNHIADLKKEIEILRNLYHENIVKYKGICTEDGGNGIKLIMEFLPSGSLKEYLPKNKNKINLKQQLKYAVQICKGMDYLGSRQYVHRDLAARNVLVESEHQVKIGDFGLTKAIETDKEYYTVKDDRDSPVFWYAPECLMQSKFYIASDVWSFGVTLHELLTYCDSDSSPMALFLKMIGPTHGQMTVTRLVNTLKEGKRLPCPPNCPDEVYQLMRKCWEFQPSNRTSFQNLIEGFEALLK
Procedure: The inhibitory potency of compounds of the disclosure against the JAK1 kinase activity on STAT3 was evaluated using an MSD-platform plate-based assay format. TF1 cells natively expressing STAT3 and JAK1 were serum-starved to reduce background phosphorylation levels, then cells were treated with compounds of the disclosure for 1 hour with a 10-point four-fold dilution series starting at 10 μM. Cells were then stimulated with 30 ng/mL interleukin 6 (IL-6) for 15 minutes. Cells were lysed and pSTAT3 levels were quantitated using an MSD plate-based assay with anti-STAT3 antibodies. The data were normalized and the percent activity versus log concentration of compound was fitted with a 4-parameter logistic model to generate IC50 curves.

[5] = molecular target: T4, human JAK1 kinase domain (JH1) (Homo sapiens, UniProt P23458); experiment: JH1 biochemical assay for JAK1 (ADP-Glo kinase assay, recombinant JH1 catalytic domain, JAK3-342 peptide, 35 μM ATP)
T4 construct: recombinantly generated catalytic kinase (also known as JH1) domain of human JAK1, JAK2, JAK3 and TYK2
T4 sequence (P23458 875-1153 limits assumed): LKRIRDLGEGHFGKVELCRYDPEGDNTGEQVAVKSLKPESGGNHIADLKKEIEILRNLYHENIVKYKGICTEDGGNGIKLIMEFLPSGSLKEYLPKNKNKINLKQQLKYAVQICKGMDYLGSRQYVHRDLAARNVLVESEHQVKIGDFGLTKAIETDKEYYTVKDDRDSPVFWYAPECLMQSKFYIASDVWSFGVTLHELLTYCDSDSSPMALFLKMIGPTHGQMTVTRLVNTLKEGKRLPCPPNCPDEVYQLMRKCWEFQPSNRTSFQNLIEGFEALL
Summary of the method: as §1

[6] = molecular target: JAK2 kinase activity on STAT5 in TF1 cells (Homo sapiens, UniProt O60674); experiment: pSTAT5 cell assay (MSD; TF1 cells, 30 ng/mL IL-3 stimulation); assay type: cell-based; settings: 30 ng/mL IL-3, 15 minutes
Chain of JAK2 kinase activity on STAT5 in TF1 cells (O60674 whole entry): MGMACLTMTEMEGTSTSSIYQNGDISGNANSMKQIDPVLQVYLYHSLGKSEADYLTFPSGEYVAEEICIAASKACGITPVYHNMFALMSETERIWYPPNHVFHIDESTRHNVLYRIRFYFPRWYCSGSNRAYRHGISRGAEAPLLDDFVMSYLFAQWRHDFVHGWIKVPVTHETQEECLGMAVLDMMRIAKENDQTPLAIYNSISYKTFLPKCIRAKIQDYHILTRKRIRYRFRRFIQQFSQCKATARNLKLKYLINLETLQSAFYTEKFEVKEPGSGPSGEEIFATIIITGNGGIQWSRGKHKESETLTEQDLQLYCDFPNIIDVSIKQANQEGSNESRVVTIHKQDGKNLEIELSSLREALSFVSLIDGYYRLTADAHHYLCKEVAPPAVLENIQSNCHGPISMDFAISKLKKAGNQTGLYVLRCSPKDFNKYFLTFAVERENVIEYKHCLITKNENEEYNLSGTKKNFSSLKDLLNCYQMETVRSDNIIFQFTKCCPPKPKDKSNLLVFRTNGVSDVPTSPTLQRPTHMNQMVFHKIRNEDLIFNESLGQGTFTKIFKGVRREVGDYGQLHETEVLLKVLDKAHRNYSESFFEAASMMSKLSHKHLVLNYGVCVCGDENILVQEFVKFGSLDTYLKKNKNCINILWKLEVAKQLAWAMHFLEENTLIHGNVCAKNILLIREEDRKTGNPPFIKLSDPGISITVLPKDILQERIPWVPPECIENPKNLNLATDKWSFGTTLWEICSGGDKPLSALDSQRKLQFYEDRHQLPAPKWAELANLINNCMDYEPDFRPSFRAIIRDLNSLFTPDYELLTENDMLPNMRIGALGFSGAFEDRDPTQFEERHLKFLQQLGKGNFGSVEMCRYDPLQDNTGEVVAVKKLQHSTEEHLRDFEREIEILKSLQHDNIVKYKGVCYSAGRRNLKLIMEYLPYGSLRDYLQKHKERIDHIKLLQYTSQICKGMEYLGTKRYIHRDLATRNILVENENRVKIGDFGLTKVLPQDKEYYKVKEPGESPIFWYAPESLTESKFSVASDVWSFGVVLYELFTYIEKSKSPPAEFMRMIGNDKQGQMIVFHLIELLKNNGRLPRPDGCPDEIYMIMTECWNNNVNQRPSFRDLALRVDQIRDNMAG
Procedure: The inhibitory potency of compounds of the disclosure against the JAK2 kinase activity on STAT5 was evaluated using an MSD-platform plate-based assay format. TF1 cells natively expressing STAT5 and JAK2 were serum-starved to reduce background phosphorylation levels, then cells were treated with compounds of disclosure for 1 hour with a 10-point four-fold dilution series starting at 10 μM. Cells were then stimulated with 30 ng/mL IL-3 for 15 minutes. Cells were then lysed and pSTAT5 levels were quantitated using an MSD plate-based assay with anti-STAT5 antibodies. The data were normalized and the percent activity versus log concentration of compound was fitted with a 4-parameter logistic model to generate a curve and an IC50 value.

[7] = molecular target: Tyk2 kinase activity on STAT4 in NK92 cells (Homo sapiens, UniProt P29597); experiment: pSTAT4 cell assay (MSD; NK92 cells, 30 ng/mL IL2 stimulation); assay type: cell-based; settings: 30 ng/mL IL2, 15 minutes
Chain of Tyk2 kinase activity on STAT4 in NK92 cells (P29597 whole entry): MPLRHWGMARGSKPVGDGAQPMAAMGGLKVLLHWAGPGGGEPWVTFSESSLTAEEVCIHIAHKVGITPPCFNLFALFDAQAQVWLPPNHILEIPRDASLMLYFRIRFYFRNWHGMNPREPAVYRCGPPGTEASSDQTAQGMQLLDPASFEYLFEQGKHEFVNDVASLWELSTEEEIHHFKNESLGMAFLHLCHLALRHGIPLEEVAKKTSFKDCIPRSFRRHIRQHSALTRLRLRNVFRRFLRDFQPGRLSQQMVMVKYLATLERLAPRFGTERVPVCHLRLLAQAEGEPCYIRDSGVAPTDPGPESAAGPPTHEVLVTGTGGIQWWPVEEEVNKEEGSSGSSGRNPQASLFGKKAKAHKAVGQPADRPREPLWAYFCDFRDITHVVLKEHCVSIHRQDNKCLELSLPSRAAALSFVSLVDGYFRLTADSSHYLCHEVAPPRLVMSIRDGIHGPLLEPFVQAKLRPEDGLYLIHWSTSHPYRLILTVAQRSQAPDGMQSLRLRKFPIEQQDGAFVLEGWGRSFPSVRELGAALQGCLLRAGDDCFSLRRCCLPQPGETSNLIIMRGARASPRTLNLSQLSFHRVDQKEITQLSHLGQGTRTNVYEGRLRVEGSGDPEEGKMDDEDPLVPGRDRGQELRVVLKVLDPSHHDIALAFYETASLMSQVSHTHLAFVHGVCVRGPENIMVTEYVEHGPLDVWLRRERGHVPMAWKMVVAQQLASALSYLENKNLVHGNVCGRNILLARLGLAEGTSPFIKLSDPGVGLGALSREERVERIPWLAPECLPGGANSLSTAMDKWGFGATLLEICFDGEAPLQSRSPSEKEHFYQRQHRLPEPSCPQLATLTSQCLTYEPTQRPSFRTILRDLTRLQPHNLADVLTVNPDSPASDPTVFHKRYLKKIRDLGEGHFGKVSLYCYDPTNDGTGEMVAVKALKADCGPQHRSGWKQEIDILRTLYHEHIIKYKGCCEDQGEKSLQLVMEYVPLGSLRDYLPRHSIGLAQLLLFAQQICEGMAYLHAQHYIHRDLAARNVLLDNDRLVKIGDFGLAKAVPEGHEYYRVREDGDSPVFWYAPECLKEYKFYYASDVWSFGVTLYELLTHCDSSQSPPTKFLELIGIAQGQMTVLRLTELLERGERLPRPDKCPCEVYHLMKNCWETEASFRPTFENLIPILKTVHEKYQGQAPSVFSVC
Summary of the method: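 Compound treatment of starved NK92 cells ran 1 hr before a 15-minute, 30 ng/mL IL2 pulse; lysates went to an MSD anti-STAT4 antibody assay, with curves fitted by 4-parameter logistic model.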

T1 sequence (O60674 849-1124 limits assumed): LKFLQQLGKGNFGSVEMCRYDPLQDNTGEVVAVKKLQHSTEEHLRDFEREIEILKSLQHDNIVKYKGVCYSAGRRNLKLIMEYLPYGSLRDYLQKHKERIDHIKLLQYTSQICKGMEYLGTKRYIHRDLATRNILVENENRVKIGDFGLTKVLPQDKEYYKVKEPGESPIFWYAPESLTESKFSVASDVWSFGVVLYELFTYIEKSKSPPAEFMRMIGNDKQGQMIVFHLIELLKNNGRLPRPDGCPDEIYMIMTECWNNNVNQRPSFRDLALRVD

Row | SMILES | IC50 ([1]; JH1 kinase domain, ADP-Glo) [nM] | IC50 ([2]; JH1 kinase domain, ADP-Glo) [nM] | IC50 ([3]; JH1 kinase domain, ADP-Glo) [nM] | IC50 [4] [nM] | IC50 ([5]; JH1 kinase domain, ADP-Glo) [nM] | IC50 [6] [nM] | IC50 [7] [nM] | IC50 ([1]; JAK2 JH1, ADP-Glo) [nM] | IC50 ([2]; TYK2 JH1, ADP-Glo) [nM] | IC50 ([3]; JAK3 JH1, ADP-Glo) [nM] | IC50 ([5]; JAK1 JH1, ADP-Glo) [nM]
1 | COc1ccc(-c2cc3c(N4C[C@@H](C)[C@@](C#N)(C5CC5)C4=O)ccnn3c2)nc1 [Example 145, (3R,4S)-3-cyclopropyl-1-(6-(5-methoxypyridin-2-yl)pyrrolo[1,2-b]pyridazin-4-yl)-4-methyl-2-oxopyrrolidine-3-carbonitrile trifluoroacetate] | 100 to 1000 | 5 to 20 | 100 to 1000 | 5000 to 10000 | 100 to 1000 | > 10000 | > 100 |  |  |  | 
2 | C[C@@H]1CN(c2ccnn3cc(-c4cnn(C(F)F)c4)cc23)C(=O)[C@]1(C#N)C1CC1 [Example 35, (3R,4S)-3-cyclopropyl-1-(6-(1-(difluoromethyl)-1H-pyrazol-4-yl)pyrrolo[1,2-b]pyridazin-4-yl)-4-methyl-2-oxopyrrolidine-3-carbonitrile] | 100 to 1000 | < 5 | 100 to 1000 | 1000 to 5000 | 100 to 1000 | 5000 to 10000 | 20 to 50 |  |  |  | 
3 | C[C@@H]1CN(c2nc(-c3cnn(C45CC(C4)C5)c3)cn3ncc(F)c23)C(=O)[C@]1(C#N)C1CC1 [Example 207, (3R,4S)-1-(6-(1-(bicyclo[1.1.1]pentan-1-yl)-1H-pyrazol-4-yl)-3-fluoropyrazolo[1,5-a]pyrazin-4-yl)-3-cyclopropyl-4-methyl-2-oxopyrrolidine-3-carbonitrile] | 100 to 1000 | < 5 | < 100 | 100 to 1000 | < 100 | 1000 to 5000 | 50 to 100 |  |  |  | 
4 | C[C@@H]1CN(c2nn(-c3cnn(C)c3)c3cnccc23)C(=O)[C@]1(C#N)C1CC1 [Example 275, (3R,4S)-3-cyclopropyl-4-methyl-1-(1-(1-methyl-1H-pyrazol-4-yl)-1H-pyrazolo[3,4-c]pyridin-3-yl)-2-oxopyrrolidine-3-carbonitrile] |  |  |  | 5000 to 10000 |  | > 10000 | > 100 | 1000 to 5000 | 5 to 20 | 100 to 1000 | 100 to 1000
5 | C[C@@H]1CN(c2ccnn3cc(-c4cnn([C@H]5C[C@@H](C#N)C5)c4)cc23)C(=O)[C@]1(C#N)C1CC1 [Example 329, (3R,4S)-1-(6-(1-((1s,3S)-3-cyanocyclobutyl)-1H-pyrazol-4-yl)pyrrolo[1,2-b]pyridazin-4-yl)-3-cyclopropyl-4-methyl-2-oxopyrrolidine-3-carbonitrile] |  |  |  | 100 to 1000 |  | 100 to 1000 | 20 to 50 | < 100 | < 5 | < 100 | < 100
6 | C[C@@H]1CN(c2nn(-c3cnn(C4COC4)c3)c3cnccc23)C(=O)[C@]1(C#N)C1CC1 [Example 278, (3R,4S)-3-cyclopropyl-4-methyl-1-(1-(1-(oxetan-3-yl)-1H-pyrazol-4-yl)-1H-pyrazolo[3,4-c]pyridin-3-yl)-2-oxopyrrolidine-3-carbonitrile] |  |  |  | 5000 to 10000 |  | 5000 to 10000 | > 100 | 100 to 1000 | < 5 | 100 to 1000 | 100 to 1000
7 | C[C@@H]1CN(c2ccnn3cc(-c4cnc5[nH]ccc5c4)cc23)C(=O)[C@]1(C#N)C1CC1 [Example 64, (3R,4S)-1-(6-(1H-pyrrolo[2,3-b]pyridin-5-yl)pyrrolo[1,2-b]pyridazin-4-yl)-3-cyclopropyl-4-methyl-2-oxopyrrolidine-3-carbonitrile] | 100 to 1000 | 5 to 20 | 100 to 1000 | 1000 to 5000 | 100 to 1000 | 5000 to 10000 | 50 to 100 |  |  |  | 
8 | C[C@@H]1CN(c2ccnn3cc(-c4cccc5c4cnn5C)cc23)C(=O)[C@]1(C#N)C1CC1 [Example 54, (3R,4S)-3-cyclopropyl-4-methyl-1-(6-(1-methyl-1H-indazol-4-yl)pyrrolo[1,2-b]pyridazin-4-yl)-2-oxopyrrolidine-3-carbonitrile] | 1000 to 5000 | 5 to 20 | 100 to 1000 | 5000 to 10000 | 100 to 1000 | > 10000 | > 100 |  |  |  | 
